The structures appear in SMILES notation. pIC50: −log10 of the molar value. Read-outs that look alike come from different tables or passages of the source.

The target of test [1] is T1, human HDAC8 (Homo sapiens, UniProt Q9BY41).
T1 construct: made in house
T1 sequence (Q9BY41 1-377): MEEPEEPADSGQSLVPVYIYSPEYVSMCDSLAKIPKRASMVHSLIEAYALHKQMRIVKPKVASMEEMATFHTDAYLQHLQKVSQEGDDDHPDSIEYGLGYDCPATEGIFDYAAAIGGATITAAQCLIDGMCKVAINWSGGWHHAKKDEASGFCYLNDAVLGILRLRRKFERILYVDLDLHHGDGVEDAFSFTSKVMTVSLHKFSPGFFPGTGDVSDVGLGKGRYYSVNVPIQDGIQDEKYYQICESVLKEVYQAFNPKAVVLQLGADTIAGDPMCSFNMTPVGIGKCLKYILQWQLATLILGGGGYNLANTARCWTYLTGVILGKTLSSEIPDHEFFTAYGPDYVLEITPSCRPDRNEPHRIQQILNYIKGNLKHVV
As to the kind of experiment: HDAC8 homogenous fluorescence assay with ZMAL substrate. The test is classed as biochemical. The following applies: read-out: HDAC8 (% Inhib.). The method, then: Recombinant human HDAC1, HDAC2, and HDAC3/NCOR1 were purchased from ENZO Life Sciences AG (Lausen, CH). Recombinant human HDAC 4, HDAC5, HDAC7, HDAC9 and HDAC11 were produced by Barinka lab in Prague, as described before. Recombinant human HDAC8 was produced by Romier et al. (IGBMC, Univ. Strasbourg), as described in [55].
Fluorescence intensity was measured at an excitation wavelength of 390 nm and an emission wavelength of 460 nm in a microtiter plate reader (BMG Polarstar).

The subject of test [2] is MOLM-13 cells. The test can be described thus: Apoptosis in MOLM-13 cells, annexin-V/PI flow cytometry. The class given is cell-based, human. The conditions noted are these: for pIC50: Homo sapiens. The method, then: We measured the induction of early (increased exposure of phosphatidylserine on the cell surface and therefore positive staining for annexin-V-FITC) and late apoptosis (positivity for annexin-V and accumulation of propidium iodide, PI) by flow cytometry.
All leukemic cells were kept in RPMI-1640 medium supplemented with 10% FBS and 1%penicillin/streptomycin (Sigma-Aldrich, Taufkirchen, Germany) under standard culture conditions at 37 °C and a 5% CO2 humidified atmosphere. Cells were authenticated as mentioned by us.

The subject of test [3] is MV4-11 and MOLM-13 cells. The test can be described thus: Immunoblot of acetylated histone H3 and cleaved caspase-3. The conditions noted are these: MV4-11 and MOLM-13 cells, 0.25, 0.5, 1 µM, 24 h. The class given is cell-based, human. The method, then: (C,D) The same experiments were conducted with MOLM-13 cells. (E) IC50 values were determined for 19f. (F) Immunoblot was done with the stated antibodies and lysates of MV4-11 and MOLM-13 cells that were incubated with the HDACi for 24 h. […] Graphs show representatives of three independent experiments.

As to `Nc1ccccc1NC(=O)c1cnc(N2CCN(Cc3c[nH]c4ccccc34)CC2)cn1` [19f, 5-(4-((1H-indol-3-yl)methyl)piperazin-1-yl)-N-(2-aminophenyl)pyrazine-2-carboxamide], the inhibition at 1 µM in test [1] worked out at 0%. The pIC50 in test [2] (MOLM-13, 48 h, read-out: IC50 (apoptosis, annexin-V/PI)) is 6.50; in test [2] (MOLM-13 cells, 24 h, annexin-V/PI, read-out: IC50 for apoptosis induction), 6.40; in test [2] (MOLM-13 cells, after 48 h, read-out: IC50 values for growth inhibition) it was around 6.52. Also, the “fold higher potency than MS-275 (apoptosis induction)” value in test [2] (MOLM-13 cells, versus MS-275) is on record as 4 fold. In addition, the “accumulation of acetylated histone H3 (immunoblot)” value in test [3] was “triggered the expected accumulation of acetylated histone H3 dose-dependently and more potently than MS-275 did”.
